Laboratory results as given in patent US10787446B2 (GENENTECH, INC., priority 2015, dated 2020).

These compounds were tested against T1, hNav1.7 and the β1 subunit (Homo sapiens, UniProt Q15858) (assay: Tritiated compound competitive binding to membranes from cells heterologously expressing hNav1.7 and the β1 subunit (LBA)). Conditions: competition with 100 pM [3H]compound, 18 h, room temperature; IC50 by 4 parameter logistic model.
T1 construct: expressed in transfected cells
In short: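 Membranes were incubated 18 h at room temperature with 100 pM [3H]-labelled NaV1.7 inhibitor and increasing test compound in 100 mM NaCl, 20 mM Tris HCl, pH 7.4. Bound radioligand was filtered on PEI-soaked GF/C, washed, and counted by scintillation. IC50 from a 4-parameter logistic fit of % inhibition.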

T1 sequence (Q15858 whole entry): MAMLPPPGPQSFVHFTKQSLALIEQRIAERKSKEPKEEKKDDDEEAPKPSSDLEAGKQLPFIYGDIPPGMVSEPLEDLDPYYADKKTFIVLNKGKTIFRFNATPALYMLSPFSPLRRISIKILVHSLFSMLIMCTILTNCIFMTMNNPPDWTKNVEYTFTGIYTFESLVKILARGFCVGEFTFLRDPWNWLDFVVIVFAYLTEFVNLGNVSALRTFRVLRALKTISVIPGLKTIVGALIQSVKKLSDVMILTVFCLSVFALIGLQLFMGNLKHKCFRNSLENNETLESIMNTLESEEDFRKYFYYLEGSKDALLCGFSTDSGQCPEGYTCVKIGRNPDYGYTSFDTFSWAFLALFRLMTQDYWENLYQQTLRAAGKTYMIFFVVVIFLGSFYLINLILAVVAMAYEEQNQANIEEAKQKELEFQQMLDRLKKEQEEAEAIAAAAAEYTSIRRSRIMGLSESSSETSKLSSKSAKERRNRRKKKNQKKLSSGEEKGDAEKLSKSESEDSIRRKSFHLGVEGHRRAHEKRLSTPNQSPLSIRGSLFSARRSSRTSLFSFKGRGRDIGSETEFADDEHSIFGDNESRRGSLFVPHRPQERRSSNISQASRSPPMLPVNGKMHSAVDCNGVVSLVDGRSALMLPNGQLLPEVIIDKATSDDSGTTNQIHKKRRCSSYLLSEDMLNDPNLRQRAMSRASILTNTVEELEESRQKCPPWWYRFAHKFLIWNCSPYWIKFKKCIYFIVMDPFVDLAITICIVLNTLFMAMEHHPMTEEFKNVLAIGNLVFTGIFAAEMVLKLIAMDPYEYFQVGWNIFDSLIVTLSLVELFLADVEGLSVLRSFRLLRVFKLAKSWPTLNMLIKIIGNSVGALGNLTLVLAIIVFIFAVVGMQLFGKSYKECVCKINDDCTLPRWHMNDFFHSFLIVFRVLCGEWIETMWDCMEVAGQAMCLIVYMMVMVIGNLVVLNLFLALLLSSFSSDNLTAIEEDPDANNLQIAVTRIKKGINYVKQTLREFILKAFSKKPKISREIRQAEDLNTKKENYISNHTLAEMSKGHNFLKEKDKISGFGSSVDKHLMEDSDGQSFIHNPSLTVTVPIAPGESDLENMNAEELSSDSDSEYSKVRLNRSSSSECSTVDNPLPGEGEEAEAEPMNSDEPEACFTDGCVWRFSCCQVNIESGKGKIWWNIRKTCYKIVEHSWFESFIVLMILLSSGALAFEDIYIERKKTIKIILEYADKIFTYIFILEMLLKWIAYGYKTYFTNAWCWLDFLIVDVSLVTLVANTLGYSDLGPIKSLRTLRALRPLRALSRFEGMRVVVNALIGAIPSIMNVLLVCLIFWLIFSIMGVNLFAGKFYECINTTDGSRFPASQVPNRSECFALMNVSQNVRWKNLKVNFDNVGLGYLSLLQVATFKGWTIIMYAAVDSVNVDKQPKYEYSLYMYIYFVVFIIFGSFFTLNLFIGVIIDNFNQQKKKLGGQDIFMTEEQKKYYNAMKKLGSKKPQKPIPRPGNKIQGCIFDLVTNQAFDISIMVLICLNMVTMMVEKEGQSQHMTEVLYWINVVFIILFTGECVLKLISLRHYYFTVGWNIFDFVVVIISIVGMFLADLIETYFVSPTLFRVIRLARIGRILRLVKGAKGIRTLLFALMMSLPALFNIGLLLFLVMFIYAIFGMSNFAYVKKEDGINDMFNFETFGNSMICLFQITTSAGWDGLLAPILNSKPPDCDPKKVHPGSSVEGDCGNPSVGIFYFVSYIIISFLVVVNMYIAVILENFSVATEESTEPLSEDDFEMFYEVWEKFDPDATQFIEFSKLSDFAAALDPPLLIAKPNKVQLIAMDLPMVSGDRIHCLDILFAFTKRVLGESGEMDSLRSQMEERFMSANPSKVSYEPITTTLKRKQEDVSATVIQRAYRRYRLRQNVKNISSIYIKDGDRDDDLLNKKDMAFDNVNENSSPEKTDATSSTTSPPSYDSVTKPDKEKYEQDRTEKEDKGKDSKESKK
T1 sequence (Q07699 19-218 partner): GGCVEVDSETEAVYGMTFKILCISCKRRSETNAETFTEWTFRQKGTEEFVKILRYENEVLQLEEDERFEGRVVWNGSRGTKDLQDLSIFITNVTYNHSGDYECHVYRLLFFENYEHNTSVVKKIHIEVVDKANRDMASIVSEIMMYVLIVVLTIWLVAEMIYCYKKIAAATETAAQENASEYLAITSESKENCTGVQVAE

SMILES | Nav1.7 (LBA) [µM]
CS(=O)(=O)[C@@H]1CCN([C@@H]2CCOc3cc(S(=O)(=O)Nc4nccs4)c(F)cc32)[C@H](c2ccc(F)cc2)C1 [Example 165, (R)-6-fluoro-4-((2S,4R)-2-(4-fluorophenyl)-4-(methylsulfonyl)piperidin-1-yl)-N-(thiazol-2-yl)chroman-7-sulfonamide] | 1.01
C[C@H]1CCN(Cc2cc(F)c(S(=O)(=O)Nc3ncns3)cc2F)[C@@H](c2ccccc2)C1 (single isomer, unassigned) [Example 7] | 4.23
O=S(=O)(Nc1ncns1)c1ccc2c(c1)OCC[C@@H]2N1CC[C@@H](C(F)(F)F)C[C@H]1c1ccc(F)c(Cl)c1 [Example 204, (S)-4-((2S,4R)-2-(3-chloro-4-fluorophenyl)-4-(trifluoromethyl)piperidin-1-yl)-N-(1,2,4-thiadiazol-5-yl)chroman-7-sulfonamide] | 0.00398
O=S(=O)(Nc1ncns1)c1ccc2c(c1)OCC[C@@H]2N1CC[C@@H](C(F)(F)F)C[C@H]1c1ccc(F)c(F)c1 [Example 106, (S)-4-((2S,4R)-2-(3,4-difluorophenyl)-4-(trifluoromethyl)piperidin-1-yl)-N-(1,2,4-thiadiazol-5-yl)chroman-7-sulfonamide] | 0.0016
O=S(=O)(Nc1ncns1)c1ccc2c(c1)OCC[C@@H]2N1CC[C@@H](C(F)(F)F)C[C@@H]1c1ccc(F)c(F)c1 [Example 107, (S)-4-((2R,4R)-2-(3,4-difluorophenyl)-4-(trifluoromethyl)piperidin-1-yl)-N-(1,2,4-thiadiazol-5-yl)chroman-7-sulfonamide] | 2.0
Nc1cccc([C@@H]2C[C@H](C(F)(F)F)CCN2[C@H]2CCOc3cc(S(=O)(=O)Nc4nccs4)c(F)cc32)n1 [Example 206, (S)-4-((2S,4R)-2-(6-aminopyridin-2-yl)-4-(trifluoromethyl)piperidin-1-yl)-6-fluoro-N-(thiazol-2-yl)chroman-7-sulfonamide] | 0.000515

Further lines, results first:

Nav1.7 (LBA) [µM] | SMILES
5.04 | C[C@@H](c1ccc(S(=O)(=O)Nc2ncns2)cc1Cl)N1CCCC[C@@H]1c1ccccc1 (single isomer, unassigned) [Example 59]
0.0494 | O=S(=O)(Nc1ncns1)c1ccc2c(c1)OCC[C@H]2N1CCN(CC(F)(F)F)C[C@H]1c1ccc(F)cc1 [Example 220, (R)-4-((R)-2-(4-fluorophenyl)-4-(2,2,2-trifluoroethyl)piperazin-1-yl)-N-(1,2,4-thiadiazol-5-yl)chromane-7-sulfonamide]
0.022 | O=S(=O)(Nc1nccs1)c1ccc2c(c1)OCC[C@@H]2N1CCCC[C@H]1c1ccc(F)cc1 (single isomer, unassigned) [Example 101]
1.25 | O=S(=O)(Nc1ncns1)c1ccc2c(c1)CCC[C@@H]2N1CCCC[C@@H]1c1ccccc1 (single isomer, unassigned) [Example 56]
0.0223 | CS(=O)(=O)[C@H]1CCN([C@H]2CCOc3cc(S(=O)(=O)Nc4ncns4)ccc32)[C@@H](c2ccc(F)cc2)C1 [Example 163, (S)-4-((2R,4S)-2-(4-fluorophenyl)-4-(methylsulfonyl)piperidin-1-yl)-N-(1,2,4-thiadiazol-5-yl)chroman-7-sulfonamide]
0.00851 | O=S(=O)(Nc1ncns1)c1ccc2c(c1)OCC[C@@H]2N1CCC(F)(F)C[C@@H]1c1ccc(F)cc1 (single isomer, unassigned) [Example 131]
0.235 | O=S(=O)(Nc1ncns1)c1ccc2c(c1)OCC[C@@H]2N1CC[C@@H](OC(F)(F)F)C[C@H]1c1ccc(F)cc1 [Example 174, (S)-4-((2S,4R)-2-(4-fluorophenyl)-4-(trifluoromethoxy)piperidin-1-yl)-N-(1,2,4-thiadiazol-5-yl)chroman-7-sulfonamide]
0.0156 | O=S(=O)(Nc1ncns1)c1ccc2c(c1)OCC[C@@H]2N1CCN(CC(F)(F)F)C[C@H]1c1ccccc1 (single isomer, unassigned) [Example 82]
